Source: patent publication US20020031816A1, “METHOD OF INHIBITION OF HUMAN GLYCOGEN PHOSPHORYLASE” (priority 1998, published 2002)

Compound | melting point
CCN1C(=O)C(C(=O)Nc2cccc(C(=O)Nc3ccc(Cl)cc3)c2)c2cc(C(C)=O)ccc21 (stereo not drawn) [Preparation 3, 5-Acetyl-1-ethyl-2-oxo-2,3-dihydro-1H-indole-3-carboxylic acid [3-(4-chloro-phenylcarbamoyl)-phenyl]-amide] | 119 to 121 °C
CCN1C(=O)C(C(=O)Nc2cccc(C(=O)Nc3ccccc3)c2)c2cc(C(=O)c3ccccc3)ccc21 (stereo not drawn) [Preparation 10, 5-Benzoyl-1-ethyl-2-oxo-2,3-dihydro-1H-indole-3-carboxylic acid (3-phenylcarbamoyl-phenyl)-amide] | 129 to 135 °C
CCN1C(=O)C(C(=O)Nc2cccc(C(=O)Nc3ccc(Br)cc3)c2)c2cc(C(C)=O)ccc21 (stereo not drawn) [Preparation 8, 5-Acetyl-1-ethyl-2-oxo-2,3-dihydro-1H-indole-3-carboxylic acid [3-(4-bromo-phenylcarbamoyl)-phenyl]-amide] | 117 to 120 °C
CC(=O)c1ccc2c(c1)C(C(=O)Nc1cccc(C(=O)Nc3ccccc3)c1)C(=O)N2C (stereo not drawn) [Preparation 12, 5-Acetyl-1-methyl-2-oxo-2,3-dihydro-1H-indole-3-carboxylic acid (3-phenylcarbamoyl-phenyl)-amide] | 178 to 179 °C

Other lines, results leading:

melting point | Compound
180 °C (dec.) | CCN1C(=O)C(C(=O)Nc2cccc(C(=O)NC3CCCCC3)c2)c2cc(C(C)=O)ccc21 (stereo not drawn) [Preparation 2, 5-Acetyl-1-ethyl-2-oxo-2,3-dihydro-1H-indole-3-carboxylic acid (3-cyclohexylcarbamoyl-phenyl)-amide]
205 to 210 °C | CCN1C(=O)C(C(=O)Nc2cccc(C(=O)Nc3ccc(I)cc3)c2)c2cc(C(C)=O)ccc21 (stereo not drawn) [Preparation 9, 5-Acetyl-1-ethyl-2-oxo-2,3-dihydro-1H-indole-3-carboxylic acid [3-(4-iodo-phenylcarbamoyl)-phenyl]-amide]
